Measurements from US11926612B2, “Heterocyclic apelin receptor (APJ) agonists and uses thereof” (Research Triangle Institute, priority 2016, dated 2024).

Molecular target: T1, apelin receptor (APJ) (Homo sapiens, UniProt P35414)
T1 sequence (P35414 1-380): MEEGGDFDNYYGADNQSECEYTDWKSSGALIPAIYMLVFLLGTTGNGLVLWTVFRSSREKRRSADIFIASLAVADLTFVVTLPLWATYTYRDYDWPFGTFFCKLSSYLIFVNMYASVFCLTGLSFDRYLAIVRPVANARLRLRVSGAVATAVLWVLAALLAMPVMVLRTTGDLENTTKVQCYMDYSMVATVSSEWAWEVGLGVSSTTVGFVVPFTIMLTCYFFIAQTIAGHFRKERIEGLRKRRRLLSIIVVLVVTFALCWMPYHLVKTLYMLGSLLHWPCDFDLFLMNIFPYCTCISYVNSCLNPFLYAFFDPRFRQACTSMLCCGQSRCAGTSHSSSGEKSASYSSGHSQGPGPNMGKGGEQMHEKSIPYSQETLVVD
Assay: in vitro activity as apelin agonists (methods of Giddings et al.; Apelin-13 positive control)
Type: cell-based
Details: apelin agonist activity, average; read-out: EC50 (nM) Ave
Excerpt: The compounds above were studied for their in vitro activity as apelin agonists using the methods described by Giddings et al. Giddings et al., 2010 Int J High Thro Screen. 1:39-47, the contents of which are hereby incorporated by reference in its entirety. The methods described in Giddings et al. were used as described and Apelin-13 was a positive control.

Q: With O=C(C[C@H](CCN1CCCCC1)NC(=O)c1nc(C2CCCC2)n(-c2ccccc2C(F)(F)F)n1)NC1CCC1 [compound 444, (3S)-N-cyclobutyl-3-({5-cyclopentyl-1-[2-(trifluoromethyl)phenyl]-1H-1,2,4-triazol-3-yl}formamido)-5-(piperidin-1-yl)pentanamide] as the compound, how does the EC50 read?
A: The EC50 was 40 nM.

Q: How did the EC50 turn out when O=C(C[C@H](CCN1CCCCC1)NC(=O)c1nc(-c2ccccc2C(F)(F)F)n(C2CCCC2)n1)NC1CCC1 [compound 446, (3S)-N-cyclobutyl-3-({1-cyclopentyl-5-[2-(trifluoromethyl)phenyl]-1H-1,2,4-triazol-3-yl}formamido)-5-(piperidin-1-yl)pentanamide] was run?
A: The EC50 was 310 nM.

Q: For O=C(C[C@H](CCN1CCCC(F)(F)C1)NC(=O)c1nc(-c2ccccc2C(F)(F)F)n(C2CCCC2)n1)NC1CCC1 [compound 453, (3S)-N-cyclobutyl-3-({1-cyclopentyl-5-[2-(trifluoromethyl)phenyl]-1H-1,2,4-triazol-3-yl}formamido)-5-(3,3-difluoropiperidin-1-yl)pentanamide], which EC50 is on record?
A: The EC50 was 9 nM.

Q: For O=C(C[C@H](CCN1CCCC(F)(F)C1)NC(=O)c1nc(C2CCCC2)n(-c2ccccc2C(F)(F)F)n1)NC1CCC1 [compound 454, (3S)-N-cyclobutyl-3-({5-cyclopentyl-1-[2-(trifluoromethyl)phenyl]-1H-1,2,4-triazol-3-yl}formamido)-5-(3,3-difluoropiperidin-1-yl)pentanamide], which EC50 is on record?
A: Its EC50 is 8.3 nM.

Q: For CN(C(=O)C[C@H](CCN1CCCC(F)(F)C1)NC(=O)c1nc(C2CCCC2)n(-c2ccccc2C(F)(F)F)n1)c1nccs1 [compound 455, (3S)-3-({5-cyclopentyl-1-[2-(trifluoromethyl)phenyl]-1H-1,2,4-triazol-3-yl}formamido)-5-(3,3-difluoropiperidin-1-yl)-N-methyl-N-(1,3-thiazol-2-yl)pentanamide], which EC50 is on record?
A: Its EC50 is 22 nM.

Q: For CN(C(=O)C[C@H](CCN1CCCC(F)(F)C1)NC(=O)c1nc(-c2ccccc2C(F)(F)F)n(C2CCCC2)n1)c1nccs1 [compound 456, (3S)-3-({1-cyclopentyl-5-[2-(trifluoromethyl)phenyl]-1H-1,2,4-triazol-3-yl}formamido)-5-(3,3-difluoropiperidin-1-yl)-N-methyl-N-(1,3-thiazol-2-yl)pentanamide], which EC50 is on record?
A: Its EC50 is 48 nM.

Q: For O=C(O)C[C@H](CCN1CCCC(F)(F)C1)NC(=O)c1nc(-c2ccccc2C(F)(F)F)n(C2CCCC2)n1 [compound 462, (3S)-3-({1-cyclopentyl-5-[2-(trifluoromethyl)phenyl]-1H-1,2,4-triazol-3-yl}formamido)-5-(3,3-difluoropiperidin-1-yl)pentanoic acid], which EC50 is on record?
A: Its EC50 is 384 nM.

Q: With CN(C(=O)C[C@H](CCN1CCCC(F)(F)C1)NC(=O)c1cn(-c2ccccc2C(F)(F)F)c(C2CCCC2)n1)c1nccs1 [compound 473, (3S)-3-({2-cyclopentyl-1-[2-(trifluoromethyl)phenyl]-1H-imidazol-4-yl}formamido)-5-(3,3-difluoropiperidin-1-yl)-N-methyl-N-(1,3-thiazol-2-yl)pentanamide] as the compound, how does the EC50 read?
A: Its EC50 is 46 nM.

Q: How did the EC50 turn out when CN(C(=O)C[C@H](CCN1CCCC(F)(F)C1)N(C)C(=O)c1nc(C2CCCC2)n(-c2ccccc2C(F)(F)F)n1)c1nccs1 [compound 474, (3S)-3-(1-{5-cyclopentyl-1-[2-(trifluoromethyl)phenyl]-1H-1,2,4-triazol-3-yl}-N-methylformamido)-5-(3,3-difluoropiperidin-1-yl)-N-methyl-N-(1,3-thiazol-2-yl)pentanamide] was run?
A: Its EC50 is 588 nM.

Q: For CC(C)Cc1c(-c2ccccc2Cl)nc(C(=O)N[C@@H](CCN2CCCC(F)(F)C2)CC(=O)O)n1C [compound 476, (3S)-3-{[4-(2-chlorophenyl)-1-methyl-5-(2-methylpropyl)-1H-imidazol-2-yl]formamido}-5-(3,3-difluoropiperidin-1-yl)pentanoic acid], which EC50 is on record?
A: Its EC50 is greater than 10000 nM.
